pIC50: −log10 of the molar value.
Columns and labels:
[1] = biological target: 3',5'-cyclic-AMP phosphodiesterase 4D (Homo sapiens, UniProt Q08499); assay: Inhibition of human PDE4D2 catalytic domain (86 to 413 residues) expressed in Escherichia coli strain BL21 using [3H]cAMP as substrate after 15 mins by liquid scintillation counter analysis
[2] = biological target: Dual specificity calcium/calmodulin-dependent 3',5'-cyclic nucleotide phosphodiesterase 1B (Homo sapiens, UniProt Q01064); assay: Inhibition of human PDE1B2 catalytic domain (10 to 487 residues) expressed in Escherichia coli strain BL21 using [3H]cAMP as substrate after 15 mins by liquid scintillation counter analysis
[3] = biological target: cGMP-dependent 3',5'-cyclic phosphodiesterase (Homo sapiens, UniProt O00408); assay: Inhibition of human PDE2A3 catalytic domain (222 to 904 residues) expressed in Escherichia coli strain BL21 using [3H]cAMP as substrate after 15 mins by liquid scintillation counter analysis
[4] = biological target: cGMP-specific 3',5'-cyclic phosphodiesterase (Homo sapiens, UniProt O76074); assay: Inhibition of human PDE5A1 catalytic domain (535 to 860 residues) expressed in Escherichia coli strain BL21 using [3H]cAMP as substrate after 15 mins by liquid scintillation counter analysis
[5] = biological target: High affinity cGMP-specific 3',5'-cyclic phosphodiesterase 9A (Homo sapiens, UniProt O76083); assay: Inhibition of human PDE9A2 catalytic domain (181 to 506 residues) expressed in Escherichia coli strain BL21 using [3H]cAMP as substrate after 15 mins by liquid scintillation counter analysis
[6] = biological target: cAMP and cAMP-inhibited cGMP 3',5'-cyclic phosphodiesterase 10A (Homo sapiens, UniProt Q9Y233); assay: Inhibition of human PDE10A2 catalytic domain (448 to 789 residues) expressed in Escherichia coli strain BL21 using [3H]cAMP as substrate after 15 mins by liquid scintillation counter analysis
Homo sapiens [7] = species: Homo sapiens; assay: Selectivity ratio of IC50 for human PDE1B2 catalytic domain (10 to 487 residues) expressed in Escherichia coli strain BL21 to IC50 for human PDE4D2 catalytic domain (86 to 413 residues) expressed in Escherichia coli strain BL21
Homo sapiens [8] = species: Homo sapiens; assay: Selectivity ratio of IC50 for human PDE2A3 catalytic domain (222 to 904 residues) expressed in Escherichia coli strain BL21 to IC50 for human PDE4D2 catalytic domain (86 to 413 residues) expressed in Escherichia coli strain BL21
Homo sapiens [9] = species: Homo sapiens; assay: Selectivity ratio of IC50 for human PDE5A1 catalytic domain (535 to 860 residues) expressed in Escherichia coli strain BL21 to IC50 for human PDE4D2 catalytic domain (86 to 413 residues) expressed in Escherichia coli strain BL21
Homo sapiens [10] = species: Homo sapiens; assay: Selectivity ratio of IC50 for human PDE9A2 catalytic domain (181 to 506 residues) expressed in Escherichia coli strain BL21 to IC50 for human PDE4D2 catalytic domain (86 to 413 residues) expressed in Escherichia coli strain BL21
Homo sapiens [11] = species: Homo sapiens; assay: Selectivity ratio of IC50 for human PDE10A2 catalytic domain (448 to 789 residues) expressed in Escherichia coli strain BL21 to IC50 for human PDE4D2 catalytic domain (86 to 413 residues) expressed in Escherichia coli strain BL21

Sequence of 3',5'-cyclic-AMP phosphodiesterase 4D (Q08499 whole entry, the tested form may be a part): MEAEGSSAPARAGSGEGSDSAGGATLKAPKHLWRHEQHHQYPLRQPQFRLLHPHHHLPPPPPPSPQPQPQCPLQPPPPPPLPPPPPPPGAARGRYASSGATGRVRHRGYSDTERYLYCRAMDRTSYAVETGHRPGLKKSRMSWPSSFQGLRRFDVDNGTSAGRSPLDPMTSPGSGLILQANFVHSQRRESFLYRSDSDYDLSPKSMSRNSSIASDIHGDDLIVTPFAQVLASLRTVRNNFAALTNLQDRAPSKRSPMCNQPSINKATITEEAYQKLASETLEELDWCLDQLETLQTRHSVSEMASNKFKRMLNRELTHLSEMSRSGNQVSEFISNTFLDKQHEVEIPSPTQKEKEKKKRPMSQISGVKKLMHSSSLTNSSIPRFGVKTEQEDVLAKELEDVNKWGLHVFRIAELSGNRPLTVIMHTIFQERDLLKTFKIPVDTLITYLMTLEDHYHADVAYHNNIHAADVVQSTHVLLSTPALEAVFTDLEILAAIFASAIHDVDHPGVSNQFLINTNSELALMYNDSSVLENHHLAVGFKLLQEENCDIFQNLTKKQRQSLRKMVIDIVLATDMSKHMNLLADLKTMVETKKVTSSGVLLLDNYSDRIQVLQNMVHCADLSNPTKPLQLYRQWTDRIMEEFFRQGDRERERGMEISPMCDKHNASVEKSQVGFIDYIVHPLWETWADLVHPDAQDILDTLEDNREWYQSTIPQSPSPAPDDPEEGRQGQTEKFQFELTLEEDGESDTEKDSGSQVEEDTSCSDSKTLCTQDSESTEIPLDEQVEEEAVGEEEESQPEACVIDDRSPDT
Sequence of cGMP-dependent 3',5'-cyclic phosphodiesterase (O00408 whole entry, the tested form may be a part): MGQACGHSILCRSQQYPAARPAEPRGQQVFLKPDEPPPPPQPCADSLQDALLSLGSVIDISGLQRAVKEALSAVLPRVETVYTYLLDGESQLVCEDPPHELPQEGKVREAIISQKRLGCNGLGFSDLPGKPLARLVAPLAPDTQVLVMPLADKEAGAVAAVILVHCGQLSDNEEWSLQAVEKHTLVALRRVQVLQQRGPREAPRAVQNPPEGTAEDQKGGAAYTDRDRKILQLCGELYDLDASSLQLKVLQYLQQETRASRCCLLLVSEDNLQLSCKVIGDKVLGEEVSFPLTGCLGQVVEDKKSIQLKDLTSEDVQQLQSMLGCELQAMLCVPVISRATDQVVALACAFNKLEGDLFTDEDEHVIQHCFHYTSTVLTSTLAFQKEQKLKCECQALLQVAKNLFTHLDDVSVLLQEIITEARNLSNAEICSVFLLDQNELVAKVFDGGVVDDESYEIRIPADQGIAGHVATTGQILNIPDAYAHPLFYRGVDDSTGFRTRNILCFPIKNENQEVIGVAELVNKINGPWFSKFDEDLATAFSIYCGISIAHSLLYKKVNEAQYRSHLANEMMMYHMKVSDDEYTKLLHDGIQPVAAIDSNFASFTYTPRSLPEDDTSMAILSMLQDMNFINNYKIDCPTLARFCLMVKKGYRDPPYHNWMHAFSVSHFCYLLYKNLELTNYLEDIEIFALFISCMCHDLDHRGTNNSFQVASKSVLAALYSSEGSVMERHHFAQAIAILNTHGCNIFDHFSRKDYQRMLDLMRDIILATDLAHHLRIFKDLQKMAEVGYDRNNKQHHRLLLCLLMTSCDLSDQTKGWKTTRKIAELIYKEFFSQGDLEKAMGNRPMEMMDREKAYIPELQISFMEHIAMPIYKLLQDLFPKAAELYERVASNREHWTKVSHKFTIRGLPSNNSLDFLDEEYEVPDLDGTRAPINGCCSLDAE
Sequence of High affinity cGMP-specific 3',5'-cyclic phosphodiesterase 9A (O76083 whole entry, the tested form may be a part): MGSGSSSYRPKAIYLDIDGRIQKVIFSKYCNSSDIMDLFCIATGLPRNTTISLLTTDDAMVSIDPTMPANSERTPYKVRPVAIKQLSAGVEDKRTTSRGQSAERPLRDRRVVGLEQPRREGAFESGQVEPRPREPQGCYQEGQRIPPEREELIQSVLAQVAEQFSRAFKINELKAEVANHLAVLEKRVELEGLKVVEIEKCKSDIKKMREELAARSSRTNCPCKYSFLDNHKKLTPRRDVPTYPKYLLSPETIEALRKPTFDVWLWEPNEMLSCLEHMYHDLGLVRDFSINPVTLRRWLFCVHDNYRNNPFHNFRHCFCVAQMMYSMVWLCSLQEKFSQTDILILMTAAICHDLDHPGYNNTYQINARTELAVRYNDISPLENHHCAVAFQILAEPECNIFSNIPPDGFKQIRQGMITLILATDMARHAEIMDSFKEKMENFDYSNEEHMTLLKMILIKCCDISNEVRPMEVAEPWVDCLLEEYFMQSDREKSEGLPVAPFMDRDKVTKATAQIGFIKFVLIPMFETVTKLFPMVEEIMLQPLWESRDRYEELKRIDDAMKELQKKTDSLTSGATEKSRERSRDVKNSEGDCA
Sequence of cAMP and cAMP-inhibited cGMP 3',5'-cyclic phosphodiesterase 10A (Q9Y233 whole entry, the tested form may be a part): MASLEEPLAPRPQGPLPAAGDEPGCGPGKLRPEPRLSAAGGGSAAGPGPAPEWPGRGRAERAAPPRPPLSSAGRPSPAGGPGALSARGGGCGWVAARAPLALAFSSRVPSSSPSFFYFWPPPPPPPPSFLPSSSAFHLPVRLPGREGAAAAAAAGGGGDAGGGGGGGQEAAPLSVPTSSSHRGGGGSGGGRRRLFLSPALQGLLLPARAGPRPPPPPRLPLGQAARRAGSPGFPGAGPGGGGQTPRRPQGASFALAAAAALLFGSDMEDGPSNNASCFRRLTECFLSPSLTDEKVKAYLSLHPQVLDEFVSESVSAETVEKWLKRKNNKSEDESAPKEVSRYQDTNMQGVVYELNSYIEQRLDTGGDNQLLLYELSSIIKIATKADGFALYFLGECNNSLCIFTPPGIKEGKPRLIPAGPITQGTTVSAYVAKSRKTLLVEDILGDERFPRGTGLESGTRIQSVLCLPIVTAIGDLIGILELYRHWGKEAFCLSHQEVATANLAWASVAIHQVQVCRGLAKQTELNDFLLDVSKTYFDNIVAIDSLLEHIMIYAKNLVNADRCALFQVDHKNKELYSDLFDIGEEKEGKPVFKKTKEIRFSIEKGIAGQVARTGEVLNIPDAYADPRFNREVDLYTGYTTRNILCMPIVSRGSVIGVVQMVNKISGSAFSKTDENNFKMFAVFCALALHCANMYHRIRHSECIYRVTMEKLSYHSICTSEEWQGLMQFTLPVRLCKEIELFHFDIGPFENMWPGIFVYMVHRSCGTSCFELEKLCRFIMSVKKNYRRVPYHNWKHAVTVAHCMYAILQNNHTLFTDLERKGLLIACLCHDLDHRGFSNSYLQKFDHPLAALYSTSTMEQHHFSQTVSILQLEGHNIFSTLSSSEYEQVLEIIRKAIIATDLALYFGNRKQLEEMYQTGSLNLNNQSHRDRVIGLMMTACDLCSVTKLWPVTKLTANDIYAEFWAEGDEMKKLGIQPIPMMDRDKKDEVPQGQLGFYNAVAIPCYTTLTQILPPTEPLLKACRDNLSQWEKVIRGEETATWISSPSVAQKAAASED
Sequence of Dual specificity calcium/calmodulin-dependent 3',5'-cyclic nucleotide phosphodiesterase 1B (Q01064 whole entry, the tested form may be a part): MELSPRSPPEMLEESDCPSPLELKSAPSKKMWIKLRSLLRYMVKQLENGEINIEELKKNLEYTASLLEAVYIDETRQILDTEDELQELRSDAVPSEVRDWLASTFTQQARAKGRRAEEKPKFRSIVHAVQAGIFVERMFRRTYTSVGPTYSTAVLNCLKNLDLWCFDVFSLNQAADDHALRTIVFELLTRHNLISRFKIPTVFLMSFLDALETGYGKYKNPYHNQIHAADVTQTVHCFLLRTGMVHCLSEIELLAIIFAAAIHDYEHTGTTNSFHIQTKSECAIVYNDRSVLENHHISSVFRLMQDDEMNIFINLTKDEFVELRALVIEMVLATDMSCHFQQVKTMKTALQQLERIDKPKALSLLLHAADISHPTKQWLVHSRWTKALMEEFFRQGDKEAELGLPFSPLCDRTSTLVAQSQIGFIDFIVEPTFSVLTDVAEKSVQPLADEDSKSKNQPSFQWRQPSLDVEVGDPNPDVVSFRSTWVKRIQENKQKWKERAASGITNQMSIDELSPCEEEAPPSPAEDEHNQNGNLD

| pIC50 [1] | Compound | also measured |
| --- | --- | --- |
| 5.44 | CC(C)=CCCC1(C)C=Cc2cc(C3CC(=O)c4c(O)cc(O)cc4O3)c(O)cc2O1 (stereo unspecified) | – |
| 5.31 | CC(=O)Oc1ccc2c(c1)O[C@H](C=C(C)C)c1c-2oc2c3c(cc(O)c2c1=O)OC(C)(C)C=C3 | – |
| 6.05 | CC(C)=CCc1c(-c2ccc(O)cc2O)oc2c3c(cc(O)c2c1=O)OC(C)(C)C=C3 [MORUSIN] | – |
| 6.57 | CC(C)=CCCC1(C)C=Cc2c(ccc(-c3oc4cc(O)cc(O)c4c(=O)c3CC=C(C)C)c2O)O1 (stereo unspecified) | – |
| 8.27 | CC(C)=C[C@H]1Oc2cc(O)ccc2-c2oc3c4c(cc(O)c3c(=O)c21)OC(C)(C)C=C4 | inhibition [1]: Dose-dependent effect; pIC50 [2]: 6.52; pIC50 [3]: 6.23; pIC50 [4]: 6.39; pIC50 [5]: 6.46; pIC50 [6]: 6.29; Ratio IC50 (Homo sapiens [7]): 55; Ratio IC50 (Homo sapiens [8]): 109; Ratio IC50 (Homo sapiens [9]): 76; Ratio IC50 (Homo sapiens [10]): 65; Ratio IC50 (Homo sapiens [11]): 94 |
| 5.07 | COc1ccc2c(c1)O[C@@H](C=C(C)C)c1c-2oc2c3c(cc(O)c2c1=O)OC(C)(C)C=C3 | – |
| 5.29 | COc1ccc2c(c1)O[C@H](C=C(C)C)c1c-2oc2c3c(cc(O)c2c1=O)OC(C)(C)C=C3 | – |
| 5.04 | C/C(C=O)=C\Cc1c(-c2ccc(O)cc2O)oc2c3c(cc(O)c2c1=O)OC(C)(C)C=C3 | – |
| 6.06 | CC1(C)C=Cc2c(c3c(c4c(=O)cc(-c5ccc(O)cc5O)oc24)OC(C)(C)CC3)O1 | – |
| 7.40 | CC(C)=CCc1c(O)cc(O)c2c(=O)c3c(oc12)-c1ccc(O)cc1OC3C=C(C)C (stereo unspecified) | – |

Further lines, the compound ahead of its results:

| Compound | pIC50 [1] | also measured |
| --- | --- | --- |
| CC(C)=CC1Oc2cc(O)ccc2-c2oc3cc(O)cc(O)c3c(=O)c21 (stereo unspecified) | 6.40 | – |
| CC(C)=CCc1c(-c2ccc(O)cc2O)oc2c(CC=C(C)C)c(O)cc(O)c2c1=O [KUWANON C] | 6.51 | – |
| CC(C)=CCC/C(C)=C/Cc1cc([C@@H]2CC(=O)c3c(O)cc(O)cc3O2)c(O)cc1O | 5.90 | – |
| CC(C)=CCC/C(C)=C/Cc1c(O)ccc([C@@H]2CC(=O)c3c(O)cc(O)cc3O2)c1O | 5.63 | – |
| CC(C)=C[C@@H]1Oc2cc(O)ccc2-c2oc3c4c(cc(O)c3c(=O)c21)OC(C)(C)C=C4 | 6.60 | inhibition [1]: Dose-dependent effect |
| CC(C)=CCc1cc([C@@H]2CC(=O)c3c(O)cc(O)cc3O2)c(O)c(CC=C(C)C)c1O | 5.00 | – |
| CC(C)=CCC/C(C)=C/Cc1c(O)c(CC=C(C)C)cc([C@@H]2CC(=O)c3c(O)cc(O)cc3O2)c1O | 5.66 | – |
| CC(C)=CCc1c(O)cc(O)c2c(=O)cc(-c3ccc(O)cc3)oc12 | 6.20 | – |
| COC1CC(C)(C)Oc2cc(O)c3c(=O)c(CC=C(C)C)c(-c4ccc(O)cc4O)oc3c21 (stereo unspecified) | 7.70 | – |
| CC1(C)C=Cc2c(ccc(-c3cc(=O)c4c(O)cc5c(c4o3)C=CC(C)(C)O5)c2O)O1 | 7.52 | – |
| C=CC(C)(C)c1cc(-c2cc(=O)c3c(O)cc(O)cc3o2)c(O)cc1O | 5.73 | – |
| CC(C)C[C@@H]1Oc2cc(O)ccc2-c2oc3c4c(cc(O)c3c(=O)c21)OC(C)(C)CC4 | 5.12 | – |
| CC(C)C[C@H]1Oc2cc(O)ccc2-c2oc3c4c(cc(O)c3c(=O)c21)OC(C)(C)CC4 | 5.36 | – |
| CC(C)=CCc1c(O)cc2oc(-c3ccc(O)cc3O)c(CC=C(C)C)c(=O)c2c1O [CUDRAFLAVONE C] | 6.59 | – |

From ChEMBL document CHEMBL4145464, “Prenylated flavonoids as potent phosphodiesterase-4 inhibitors from Morus alba: Isolation, modification, and structure-activity relationship study” (Eur J Med Chem, 2018)
